# What was measured:
# Details in all cases: 1 uM
# AAK1 = AAK1 (Homo sapiens (Human), UniProt Q2M2I8); experiment: KINOMEscan; type: binding
# AKT3 = AKT3 (Homo sapiens (Human), UniProt Q9Y243); experiment: KINOMEscan; type: binding
# ALK = ALK (Homo sapiens (Human), UniProt Q9UM73); experiment: KINOMEscan; type: binding
# CAMKK1 = CAMKK1 (Homo sapiens (Human), UniProt Q8N5S9); experiment: KINOMEscan; type: binding
# CLK3 = CLK3 (Homo sapiens (Human), UniProt P49761); experiment: KINOMEscan; type: binding
# DCAMKL2 = DCAMKL2 (Homo sapiens (Human), UniProt Q8N568); experiment: KINOMEscan; type: binding
# DRAK2 = DRAK2 (Homo sapiens (Human), UniProt O94768); experiment: KINOMEscan; type: binding
# Chain of DRAK2 (O94768 whole entry): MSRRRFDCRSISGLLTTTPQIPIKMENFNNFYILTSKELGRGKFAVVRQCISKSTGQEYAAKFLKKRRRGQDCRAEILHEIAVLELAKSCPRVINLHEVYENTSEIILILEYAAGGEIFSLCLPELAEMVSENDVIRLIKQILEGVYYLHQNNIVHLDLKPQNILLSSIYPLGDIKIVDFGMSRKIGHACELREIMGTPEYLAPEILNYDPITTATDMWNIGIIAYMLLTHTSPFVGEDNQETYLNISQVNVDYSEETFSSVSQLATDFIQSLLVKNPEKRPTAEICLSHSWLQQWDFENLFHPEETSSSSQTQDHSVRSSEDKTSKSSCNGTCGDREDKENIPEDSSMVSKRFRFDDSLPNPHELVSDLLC
# EPHA7 = EPHA7 (Homo sapiens (Human), UniProt Q15375); experiment: KINOMEscan; type: binding
# FGFR3 (G697C) = FGFR3 (G697C) (Homo sapiens (Human), UniProt P22607, G697C); experiment: KINOMEscan; type: binding
# FLT3 (D835H) = FLT3 (D835H) (Homo sapiens (Human), UniProt P36888, D835H); experiment: KINOMEscan; type: binding
# HIPK3 = HIPK3 (Homo sapiens (Human), UniProt Q9H422); experiment: KINOMEscan; type: binding
# IKK-beta = IKK-beta (Homo sapiens (Human), UniProt O14920); experiment: KINOMEscan; type: binding
# MAP3K1 = MAP3K1 (Homo sapiens (Human), UniProt Q13233); experiment: KINOMEscan; type: binding
# MAP4K3 = MAP4K3 (Homo sapiens (Human), UniProt Q8IVH8); experiment: KINOMEscan; type: binding
# MLK1 = MLK1 (Homo sapiens (Human), UniProt P80192); experiment: KINOMEscan; type: binding
# Chain of MLK1 (P80192 whole entry): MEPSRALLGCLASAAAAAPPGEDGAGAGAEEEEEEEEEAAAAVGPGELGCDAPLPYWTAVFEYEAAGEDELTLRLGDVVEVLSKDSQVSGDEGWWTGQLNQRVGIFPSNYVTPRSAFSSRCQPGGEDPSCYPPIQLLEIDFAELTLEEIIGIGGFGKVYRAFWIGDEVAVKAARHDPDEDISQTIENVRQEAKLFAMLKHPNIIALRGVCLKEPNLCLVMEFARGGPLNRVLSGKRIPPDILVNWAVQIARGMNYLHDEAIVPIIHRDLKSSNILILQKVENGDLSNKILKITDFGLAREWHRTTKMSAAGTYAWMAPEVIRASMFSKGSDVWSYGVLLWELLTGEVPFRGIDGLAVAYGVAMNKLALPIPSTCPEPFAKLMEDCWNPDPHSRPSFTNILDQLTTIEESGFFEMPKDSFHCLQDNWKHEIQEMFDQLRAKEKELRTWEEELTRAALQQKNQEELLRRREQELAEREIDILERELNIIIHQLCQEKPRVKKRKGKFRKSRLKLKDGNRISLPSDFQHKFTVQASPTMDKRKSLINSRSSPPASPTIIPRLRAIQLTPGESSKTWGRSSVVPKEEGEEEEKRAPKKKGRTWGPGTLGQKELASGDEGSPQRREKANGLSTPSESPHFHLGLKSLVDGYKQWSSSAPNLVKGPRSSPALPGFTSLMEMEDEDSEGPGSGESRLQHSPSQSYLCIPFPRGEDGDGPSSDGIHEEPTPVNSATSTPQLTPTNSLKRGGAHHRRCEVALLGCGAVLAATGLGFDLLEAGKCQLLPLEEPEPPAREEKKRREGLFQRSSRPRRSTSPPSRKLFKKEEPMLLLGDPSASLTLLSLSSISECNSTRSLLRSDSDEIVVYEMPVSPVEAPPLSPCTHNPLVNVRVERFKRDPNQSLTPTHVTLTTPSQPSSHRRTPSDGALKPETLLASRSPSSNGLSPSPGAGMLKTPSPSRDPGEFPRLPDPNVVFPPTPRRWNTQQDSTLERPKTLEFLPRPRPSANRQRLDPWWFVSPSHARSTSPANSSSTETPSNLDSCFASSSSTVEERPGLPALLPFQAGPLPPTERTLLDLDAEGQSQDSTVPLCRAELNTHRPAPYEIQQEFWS
# MRCKB = MRCKB (Homo sapiens (Human), UniProt Q9Y5S2); experiment: KINOMEscan; type: binding
# MST2 = MST2 (Homo sapiens (Human), UniProt Q13188); experiment: KINOMEscan; type: binding
# NEK1 = NEK1 (Homo sapiens (Human), UniProt Q96PY6); experiment: KINOMEscan; type: binding
# Chain of NEK1 (Q96PY6 whole entry): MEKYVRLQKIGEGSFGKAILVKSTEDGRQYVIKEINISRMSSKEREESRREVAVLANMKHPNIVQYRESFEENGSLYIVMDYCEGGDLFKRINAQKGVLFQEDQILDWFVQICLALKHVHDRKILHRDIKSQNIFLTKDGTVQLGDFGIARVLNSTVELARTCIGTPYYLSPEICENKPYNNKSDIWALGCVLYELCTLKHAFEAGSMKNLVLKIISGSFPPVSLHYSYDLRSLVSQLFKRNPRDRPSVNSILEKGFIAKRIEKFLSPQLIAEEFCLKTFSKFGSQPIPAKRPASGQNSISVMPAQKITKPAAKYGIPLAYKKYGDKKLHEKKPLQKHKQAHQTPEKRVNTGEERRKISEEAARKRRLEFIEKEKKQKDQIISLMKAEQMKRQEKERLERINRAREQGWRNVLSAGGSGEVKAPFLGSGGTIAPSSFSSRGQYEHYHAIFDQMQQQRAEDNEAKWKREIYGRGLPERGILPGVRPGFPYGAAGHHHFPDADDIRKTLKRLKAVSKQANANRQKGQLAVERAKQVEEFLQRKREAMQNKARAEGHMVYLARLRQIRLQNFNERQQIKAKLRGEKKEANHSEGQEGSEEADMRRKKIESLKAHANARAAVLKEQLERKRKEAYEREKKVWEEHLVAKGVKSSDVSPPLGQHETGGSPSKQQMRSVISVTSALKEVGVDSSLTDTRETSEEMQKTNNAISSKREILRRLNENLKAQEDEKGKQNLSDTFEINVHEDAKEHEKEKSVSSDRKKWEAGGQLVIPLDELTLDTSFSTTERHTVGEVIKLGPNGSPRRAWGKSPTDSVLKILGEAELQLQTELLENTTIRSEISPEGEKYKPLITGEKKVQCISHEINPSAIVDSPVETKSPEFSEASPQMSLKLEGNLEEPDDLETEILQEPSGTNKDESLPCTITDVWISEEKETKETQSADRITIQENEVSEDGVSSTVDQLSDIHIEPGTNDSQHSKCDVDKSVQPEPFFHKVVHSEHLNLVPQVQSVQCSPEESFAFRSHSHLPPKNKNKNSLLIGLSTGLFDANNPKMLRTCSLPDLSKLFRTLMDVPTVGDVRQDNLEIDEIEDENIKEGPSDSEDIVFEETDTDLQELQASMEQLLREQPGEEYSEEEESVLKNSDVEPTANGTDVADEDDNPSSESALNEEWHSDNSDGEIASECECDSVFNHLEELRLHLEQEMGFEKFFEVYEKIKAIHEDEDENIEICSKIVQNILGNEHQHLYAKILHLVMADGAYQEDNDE
# PFTK1 = PFTK1 (Homo sapiens (Human), UniProt O94921); experiment: KINOMEscan; type: binding
# Chain of PFTK1 (O94921 whole entry): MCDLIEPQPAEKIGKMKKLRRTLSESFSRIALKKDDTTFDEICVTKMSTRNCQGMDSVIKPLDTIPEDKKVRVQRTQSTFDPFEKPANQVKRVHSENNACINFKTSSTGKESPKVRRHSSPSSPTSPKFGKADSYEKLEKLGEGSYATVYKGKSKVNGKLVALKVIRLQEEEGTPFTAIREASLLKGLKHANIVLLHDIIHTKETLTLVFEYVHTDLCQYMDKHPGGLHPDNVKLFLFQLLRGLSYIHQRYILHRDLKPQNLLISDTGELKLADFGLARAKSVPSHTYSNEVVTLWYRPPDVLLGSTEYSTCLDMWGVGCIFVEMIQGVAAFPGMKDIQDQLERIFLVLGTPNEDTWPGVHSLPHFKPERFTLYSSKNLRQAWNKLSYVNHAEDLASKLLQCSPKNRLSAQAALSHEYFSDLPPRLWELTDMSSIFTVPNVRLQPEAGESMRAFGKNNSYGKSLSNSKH
# PIK3C2G = PIK3C2G (Homo sapiens (Human), UniProt O75747); experiment: KINOMEscan; type: binding
# PIK3CA (M1043I) = PIK3CA (M1043I) (Homo sapiens (Human), UniProt P42336, M1043I); experiment: KINOMEscan; type: binding
# PIK3CB = PIK3CB (Homo sapiens (Human), UniProt P42338); experiment: KINOMEscan; type: binding
# PIK3CD = PIK3CD (Homo sapiens (Human), UniProt O00329); experiment: KINOMEscan; type: binding
# PLK2 = PLK2 (Homo sapiens (Human), UniProt Q9NYY3); experiment: KINOMEscan; type: binding
# PRKCD = PRKCD (Homo sapiens (Human), UniProt Q05655); experiment: KINOMEscan; type: binding
# Chain of PRKCD (Q05655 whole entry): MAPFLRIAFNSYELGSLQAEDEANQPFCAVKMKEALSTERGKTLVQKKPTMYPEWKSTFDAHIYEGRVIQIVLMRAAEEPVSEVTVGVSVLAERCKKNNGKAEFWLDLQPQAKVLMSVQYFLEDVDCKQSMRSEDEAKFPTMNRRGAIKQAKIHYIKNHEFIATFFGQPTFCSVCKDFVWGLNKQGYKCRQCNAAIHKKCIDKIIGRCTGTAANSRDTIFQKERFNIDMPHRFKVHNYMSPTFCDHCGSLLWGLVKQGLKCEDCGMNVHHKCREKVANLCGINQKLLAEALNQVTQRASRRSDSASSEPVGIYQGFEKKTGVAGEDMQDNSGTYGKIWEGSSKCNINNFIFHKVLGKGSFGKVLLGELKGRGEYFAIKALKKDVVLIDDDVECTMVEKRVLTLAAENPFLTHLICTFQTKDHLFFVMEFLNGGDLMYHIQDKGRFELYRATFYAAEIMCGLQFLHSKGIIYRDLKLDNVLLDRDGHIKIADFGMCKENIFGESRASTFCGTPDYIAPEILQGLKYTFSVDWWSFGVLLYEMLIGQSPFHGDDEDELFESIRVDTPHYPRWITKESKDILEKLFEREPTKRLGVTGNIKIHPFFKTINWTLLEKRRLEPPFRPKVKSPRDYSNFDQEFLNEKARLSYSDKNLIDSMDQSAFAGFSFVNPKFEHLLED
# PRKG2 = PRKG2 (Homo sapiens (Human), UniProt Q13237); experiment: KINOMEscan; type: binding
# RAF1 = RAF1 (Homo sapiens (Human), UniProt P04049); experiment: KINOMEscan; type: binding
# RET (V804L) = RET (V804L) (Homo sapiens (Human), UniProt P07949, V804L); experiment: KINOMEscan; type: binding
# [1] = target: RPS6KA5 (Kin.Dom.2-C-terminal) (Homo sapiens (Human), UniProt O75582); experiment: KINOMEscan; type: binding
# Chain of RPS6KA5 (Kin.Dom.2-C-terminal) (O75582 426-687): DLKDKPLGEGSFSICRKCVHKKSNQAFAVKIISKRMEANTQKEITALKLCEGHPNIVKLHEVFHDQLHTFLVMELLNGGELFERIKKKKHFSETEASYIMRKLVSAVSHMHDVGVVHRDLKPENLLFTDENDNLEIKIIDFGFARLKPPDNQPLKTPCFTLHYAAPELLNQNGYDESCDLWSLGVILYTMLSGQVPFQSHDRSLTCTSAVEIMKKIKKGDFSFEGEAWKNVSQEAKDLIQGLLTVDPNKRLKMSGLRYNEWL
# [2] = target: RSK4 (Kin.Dom.1-N-terminal) (Homo sapiens (Human), UniProt Q9UK32); experiment: KINOMEscan; type: binding
# S6K1 = S6K1 (Homo sapiens (Human), UniProt P23443); experiment: KINOMEscan; type: binding
# SgK110 = SgK110 (Homo sapiens (Human), UniProt P0C264); experiment: KINOMEscan; type: binding
# SGK3 = SGK3 (Homo sapiens (Human), UniProt Q96BR1); experiment: KINOMEscan; type: binding
# SRPK1 = SRPK1 (Homo sapiens (Human), UniProt Q96SB4); experiment: KINOMEscan; type: binding
# TESK1 = TESK1 (Homo sapiens (Human), UniProt Q15569); experiment: KINOMEscan; type: binding
# TNK2 = TNK2 (Homo sapiens (Human), UniProt Q07912); experiment: KINOMEscan; type: binding
# TNNI3K = TNNI3K (Homo sapiens (Human), UniProt Q59H18); experiment: KINOMEscan; type: binding
# TYRO3 = TYRO3 (Homo sapiens (Human), UniProt Q06418); experiment: KINOMEscan; type: binding
# Chain of TYRO3 (Q06418 41-890): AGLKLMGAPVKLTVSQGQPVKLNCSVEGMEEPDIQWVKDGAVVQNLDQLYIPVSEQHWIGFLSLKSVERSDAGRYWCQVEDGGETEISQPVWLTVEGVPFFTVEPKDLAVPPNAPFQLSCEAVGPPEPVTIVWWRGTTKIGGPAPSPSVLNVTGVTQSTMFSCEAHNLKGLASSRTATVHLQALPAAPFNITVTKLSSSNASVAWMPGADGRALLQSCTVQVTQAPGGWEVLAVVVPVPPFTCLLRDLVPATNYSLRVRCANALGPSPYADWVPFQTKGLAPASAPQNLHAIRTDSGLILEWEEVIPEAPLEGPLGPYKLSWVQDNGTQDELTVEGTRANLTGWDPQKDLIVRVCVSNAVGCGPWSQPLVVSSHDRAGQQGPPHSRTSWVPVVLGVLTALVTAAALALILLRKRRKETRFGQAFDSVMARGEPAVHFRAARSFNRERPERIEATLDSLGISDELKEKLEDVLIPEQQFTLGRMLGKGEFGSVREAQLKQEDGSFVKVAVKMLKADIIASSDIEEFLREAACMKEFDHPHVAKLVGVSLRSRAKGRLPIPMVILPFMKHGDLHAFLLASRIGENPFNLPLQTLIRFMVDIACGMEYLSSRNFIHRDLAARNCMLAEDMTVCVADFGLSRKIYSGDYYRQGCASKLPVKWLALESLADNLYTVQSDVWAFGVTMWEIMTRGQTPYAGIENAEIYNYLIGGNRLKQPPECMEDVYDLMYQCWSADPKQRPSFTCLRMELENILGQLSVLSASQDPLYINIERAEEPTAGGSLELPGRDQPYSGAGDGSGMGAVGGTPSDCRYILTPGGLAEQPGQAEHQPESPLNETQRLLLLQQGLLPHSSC
# WEE1 = WEE1 (Homo sapiens (Human), UniProt P30291); experiment: KINOMEscan; type: binding
# PKNB (M. tuberculosis) = PKNB (M. tuberculosis) (Mycobacterium tuberculosis (strain ATCC 25618 / H37Rv), UniProt P9WI81)
structure (smiles),measurement,setting,value
COc1ccc(N2C(=O)N(c3c(C)cccc3C)Cc3cnc(Nc4ccc(N5CCN(C)CC5)cc4)nc32)c(OC)c1 [HG-11-136-01],KINOMEscan AAK1,AAK1,13
same,KINOMEscan AKT3,AKT3,100
same,KINOMEscan ALK,ALK,1.6
same,KINOMEscan CAMKK1,CAMKK1,94
same,KINOMEscan CLK3,CLK3,78
same,KINOMEscan DCAMKL2,DCAMKL2,88
same,KINOMEscan DRAK2,DRAK2,100
same,KINOMEscan EPHA7,EPHA7,72
same,KINOMEscan FGFR3 (G697C),FGFR3 (G697C),1.4
same,KINOMEscan FLT3 (D835H),FLT3 (D835H),16
same,KINOMEscan HIPK3,HIPK3,2.6
same,KINOMEscan IKK-beta,IKK-beta,80
same,KINOMEscan MAP3K1,MAP3K1,73
same,KINOMEscan MAP4K3,MAP4K3,1.8
same,KINOMEscan MLK1,MLK1,6
same,KINOMEscan MRCKB,MRCKB,38
same,KINOMEscan MST2,MST2,0.75
same,KINOMEscan NEK1,NEK1,88
same,KINOMEscan PFTK1,PFTK1,100
same,KINOMEscan PIK3C2G,PIK3C2G,87
same,KINOMEscan PIK3CA (M1043I),PIK3CA (M1043I),64
same,KINOMEscan PIK3CB,PIK3CB,92
same,KINOMEscan PIK3CD,PIK3CD,72
same,KINOMEscan PLK2,PLK2,21
same,KINOMEscan PRKCD,PRKCD,94
same,KINOMEscan PRKG2,PRKG2,92
same,KINOMEscan RAF1,RAF1,93
same,KINOMEscan RET (V804L),RET (V804L),24
same,KINOMEscan RPS6KA5 (Kin.Dom.2-C-terminal),[1],80
same,KINOMEscan RSK4 (Kin.Dom.1-N-terminal),[2],39
same,KINOMEscan S6K1,S6K1,72
same,KINOMEscan SgK110,SgK110,8.6
same,KINOMEscan SGK3,SGK3,77
same,KINOMEscan SRPK1,SRPK1,16
same,KINOMEscan TESK1,TESK1,0
same,KINOMEscan TNK2,TNK2,0.15
same,KINOMEscan TNNI3K,TNNI3K,3.6
same,KINOMEscan TYRO3,TYRO3,1.6
same,KINOMEscan WEE1,WEE1,69
same,KINOMEscan PKNB (M. tuberculosis),PKNB (M. tuberculosis),6.6
